Laboratory results: patent US6632816B1, “Aromatic derivatives as HIV aspartyl protease inhibitors” (Pharmacor Inc., priority 2002, dated 2003)
pEC50, pKi: −log10 of the molar value. Like-named read-outs stand apart in the source and are kept apart here.

Tests used:
[1] = tested on: HIV-1 laboratory viral strain NL4.3 (wild type virus); test: Anti-viral assay in vitro (MTT, infected MT-4 cells); format: cell-based; details: Human immunodeficiency virus 1, MT4, 144 h
Description: Anti-viral and Cytotoxicity Assays In Vitro
To evaluate the EC50 of our compounds, various drug concentrations are incubated with the infected cell for six days and then the metabolic activity of the cells is monitored by the MTT assay. (See A. J. Japour et al, Antimicrobial Agents and Chemotherapy, 37, 1095-1101, 1993 and R. Pauwels et al. Journal of Virological Methods, 20, 309-321, 1988)
We use the laboratory viral strain NL4.3 as wild type virus and the cell line used is MT-4 which is a T-cell line highly sensitive to HIV-1. We also use some WT clinical strains. To address the resistance issue we assay the inhibitors with NL4.3 mutants which are designed to be resistant to specific commercially,available inhibitors

HIV protease = HIV protease (Human immunodeficiency virus type 1 group M subtype B, UniProt P04585); test: biochemical
[2] = MT-4 cells infected with NL4.3, six days, MTT assay, read-out: EC50

Row | Compound | pEC50 [1, 2] | pKi (HIV protease) | pEC50 [1]
1 | COC(=O)N[C@@H](Cc1ccccc1-c1ccccc1)C(=O)NCCCC[C@@H](CO)N(CC(C)C)S(=O)(=O)c1ccc(N)cc1 [Example 39, (1S,5S)-(1-{5-[(4-Amino-benzenesulfonyl)-isobutyl-amino]-6-hydroxy-hexylcarbamoyl}-2-biphenyl-2-yl-ethyl)-carbamic Acid Methyl Ester] | 6.70 | 9.28 | –
2 | COC(=O)N[C@H](C(=O)NCCCC[C@@H](CO)N(CC(C)C)S(=O)(=O)c1ccc(C#N)cc1)C(c1ccccc1)c1ccccc1 [Example 79] | 7.19 | > 8.42 | –
3 | COc1ccc(S(=O)(=O)N(CC(C)C)[C@H](CO)CCCCNC(=O)[C@H](Cc2cccc3ccccc23)NC(=O)N2CCOCC2)cc1 [Example 45, (1S,5S)-Morpholine-4-carboxylic Acid (1-{6-Hydroxy-5-[isobutyl-(4-methoxy-benzenesulfonyl)-amino]-hexylcarbamoyl}-2-naphthalen-1-yl-ethyl)-amide] | 6.22 | 8.82 | –
4 | CC(C)CN([C@H](CO)CCCCNC(=O)[C@@H](NC(=O)c1cccnc1)C(c1ccccc1)c1ccccc1)S(=O)(=O)c1ccc(N)cc1 [Example 73, (1S,5S)-N-(1-{5-[(4-Amino-benzenesulfonyl)-isobutyl-amino]-6-hydroxy-hexylcarbamoyl}-2,2-diphenyl-ethyl)-nicotinamide] | 7.41 | 9.17 | –
5 | CC(C)CN([C@H](CO)CCCNC(=O)[C@@H](NC(=O)N1CCOCC1)C(c1ccccc1)c1ccccc1)S(=O)(=O)c1ccc(N)cc1 [Example 9, (1S,4S)-Morpholine-4-carboxylic Acid (1-{4-[(4-Amino-benzenesulfonyl)-isobutyl-amino]-5-hydroxy-pentylcarbamoyl}-2,2-diphenyl-ethyl)-amide] | 5.89 | 8.38 | –
6 | CC(C)CN([C@H](CO)CCCNC(=O)[C@H](Cc1cccc2ccccc12)NC(=O)CC(F)(F)F)S(=O)(=O)c1ccc(N)cc1 [Example 12, (1S,4S)-N-(1-{4-[(4-Amino-benzenesulfonyl)-isobutyl-amino]-5-hydroxy-pentylcarbamoyl}-2-naphthalen-1-yl-ethyl)-3,3,3-trifluoro-propionamide] | 6.13 | – | –
7 | COc1ccc(S(=O)(=O)N(CC(C)C)[C@H](CO)CCCCNC(=O)[C@H](Cc2ccc3ccccc3c2)NC(=O)N2CCOCC2)cc1 [Example 35, (1S,5S)-Morpholine-4-carboxylic Acid (1-{6-Hydroxy-5-[isobutyl-(4-methoxy-benzenesulfonyl)-amino]-hexylcarbamoyl}-2-naphthalen-2-yl-ethyl)-amide] | – | 8.89 | 6.56
8 | COC(=O)NC(Cc1ccccc1-c1ccccc1)C(=O)NCCCC(CO)N(CC(C)C)S(=O)(=O)c1ccc(N)cc1 [Example 3, (1R,S,4S)-(1-{4-[(4-Amino-benzenesulfonyl)-isobutyl-amino]-5-hydroxy-pentylcarbamoyl}-2-biphenyl-2-yl-ethyl)-carbamic Acid Methyl Ester] | 7.19 | 8.62 | –
9 | CC(C)CN([C@H](CO)CCCCNC(=O)[C@H](Cc1ccc2ccccc2c1)NC(=O)N1CCOCC1)S(=O)(=O)c1ccc(N)cc1 [Example 33, (1S,5S)-Morpholine-4-carboxylic Acid (1-{5-[(4-Amino-benzenesulfonyl)-isobutyl-amino]-6-hydroxy-hexylcarbamoyl}-2-naphthalen-2-yl-ethyl)-amide] | 7.04 | 9.10 | –
10 | CC(C)CN([C@H](CO)CCCCNC(=O)[C@@H](NC(=O)C1CC1)C(c1ccccc1)c1ccccc1)S(=O)(=O)c1ccc(N)cc1 [Example 75, (1S,5S)-Cyclopropanecarboxylic Acid (1-{5-[(4-Amino-benzenesulfonyl)-isobutyl-amino]-6-hydroxy-hexylcarbamoyl}-2,2-diphenyl-ethyl)-amide] | 7.60 | > 8.42 | –
11 | COC(=O)N[C@H](C(=O)NCCCC[C@@H](CO)N(CC(C)C)S(=O)(=O)c1ccc2c(c1)OCO2)C(c1ccccc1)c1ccccc1 [Example 67, (1S,5S)-(1-{5-[(Benzo[1,3]dioxole-5-sulfonyl)-isobutyl-amino]-6-hydroxy-hexylcarbamoyl}-2,2-diphenyl-ethyl)-carbamic Acid Methyl Ester] | 6.84 | – | –
12 | CC(C)CN([C@H](CO)CCCCNC(=O)[C@H](Cc1ccc2ccccc2c1)NC(=O)CC(F)(F)F)S(=O)(=O)c1ccc(N)cc1 [Example 61, (1S,5S)-N-(1-{5-[(4-Amino-benzenesulfonyl)-isobutyl-amino]-6-hydroxy-hexylcarbamoyl}-2-naphthalen-2-yl-ethyl)-3,3,3-trifluoro-propionamide] | 6.79 | – | –
13 | CC(C)CN([C@H](CO)CCCCNC(=O)[C@H](Cc1ccc2ccccc2c1)NC(=O)C1CC1)S(=O)(=O)c1ccc(F)c(N)c1 [Example 87, (1S,5S)-Cyclopropanecarboxylic Acid (1-{5-[(3-Amino-4-fluoro-benzenesulfonyl)-isobutyl-amino]-6-hydroxy-hexylcarbamoyl}-2-naphthalen-2-yl-ethyl)-amide] | – | > 8.42 | –
14 | CC(C)CN([C@H](CO)CCCCNC(=O)[C@@H](NC(=O)c1ccccc1O)C(c1ccccc1)c1ccccc1)S(=O)(=O)c1ccc(N)cc1 [Example 104, (1S,5S)-N-(1-{5-[(4-Amino-benzenesulfonyl)-isobutyl-amino]-6-hydroxy-hexylcarbamoyl}-2,2-diphenyl-ethyl)-2-hydroxy-benzamide] | – | > 8.42 | –
15 | CC(C)CN([C@H](CO)CCCCNC(=O)[C@@H](NC(=O)c1ccc(O)cc1)C(c1ccccc1)c1ccccc1)S(=O)(=O)c1ccc(N)cc1 [Example 102, (1S,5S)-N-(1-{5-[(4-Amino-benzenesulfonyl)-isobutyl-amino]-6-hydroxy-hexylcarbamoyl}-2,2-diphenyl-ethyl)-4-hydroxy-benzamide] | – | > 8.42 | –
16 | CC(C)CN[C@@H](Cc1cccc2ccccc12)C(=O)NCCC[C@@H](CO)N(CC(C)C)S(=O)(=O)c1ccc(N)cc1 [Example 25, (2S,4S)-N-{4-[(4-Amino-benzenesulfonyl)-isobutyl-amino]-5-hydroxy-pentyl}-2-isobutylamino-3-naphthalen-1-yl-propionamide] | – | 8.43 | –
17 | CCN[C@@H](Cc1ccc2ccccc2c1)C(=O)NCCCC[C@@H](CO)N(CC(C)C)S(=O)(=O)c1ccc(N)cc1 [Example 65, (2S,5S)-N-{5-[(4-Amino-benzenesulfonyl)-isobutyl-amino]-6-hydroxy-hexyl}-2-ethylamino-3-naphthalen-2-yl-propionamide] | – | 8.21 | –
18 | CC(C)CN([C@H](CO)CCCCNC(=O)[C@@H](NC(=O)c1ccc[nH]1)C(c1ccccc1)c1ccccc1)S(=O)(=O)c1ccc(N)cc1 [Example 98, (1S,5S)-Pyrrole-2-carboxylic Acid (1-{5-[(4-Amino-benzenesulfonyl)-isobutyl-amino]-6-hydroxy-hexylcarbamoyl}-2,2-diphenyl-ethyl)-amide] | – | > 8.42 | –
19 | COC(=O)CN[C@@H](Cc1cccc2ccccc12)C(=O)NCCC[C@@H](CO)N(CC(C)C)S(=O)(=O)c1ccc(N)cc1 [Example 15, (1S,4S)-(1-{4-[(4-Amino-benzenesulfonyl)-isobutyl-amino]-5-hydroxy-pentylcarbamoyl}-2-naphthalen-1-yl-ethylamino)-acetic Acid Methyl Ester] | – | 8.38 | –
20 | CC(C)CN[C@@H](Cc1ccc2ccccc2c1)C(=O)NCCCC[C@@H](CO)N(CC(C)C)S(=O)(=O)c1ccc(N)cc1 [Example 63, (2S,5S)-N-{5-[(4-Amino-benzenesulfonyl)-isobutyl-amino]-6-hydroxy-hexyl}-2-isobutylamino-3-naphthalen-2-yl-propionamide] | – | 8.41 | –
21 | CC(C)CN([C@H](CO)CCCCNC(=O)[C@H](Cc1ccc2ccccc2c1)NC(=O)OC(C)(C)C)S(=O)(=O)c1ccc(F)c(N)c1 [Example 90, (1S,5S)-(1-{5-[(3-Amino-4-fluoro-benzenesulfonyl)-isobutyl-amino]-6-hydroxy-hexylcarbamoyl}-2-naphthalen-2-yl-ethyl)-carbamic Acid tert-Butyl Ester] | – | 8.40 | –
22 | Cc1ncccc1C(=O)N[C@H](C(=O)NCCCC[C@@H](CO)N(CC(C)C)S(=O)(=O)c1ccc(N)cc1)C(c1ccccc1)c1ccccc1 [Example 111, (1S,5S)-N-(1-{5-[(4-Amino-benzenesulfonyl)-isobutyl-amino]-6-hydroxy-hexylcarbamoyl}-2,2-diphenyl-ethyl)-2-methyl-nicotinamide] | – | > 8.42 | –
23 | COC(=O)N[C@@H](Cc1ccc2ccccc2c1)C(=O)NCCCC[C@@H](CO)N(CC(C)C)S(=O)(=O)c1ccc(F)c(N)c1 [Example 82, (1S,5S)-(1-{5-[(3-Amino-4-fluoro-benzenesulfonyl)-isobutyl-amino]-6-hydroxy-hexylcarbamoyl}-2-naphthalen-2-yl-ethyl)-carbamic Acid Methyl Ester] | – | > 8.42 | –
24 | CC(C)CN([C@H](CO)CCCCNC(=O)[C@H](Cc1ccc2ccccc2c1)NC(=O)N(C)C)S(=O)(=O)c1ccc(F)c(N)c1 [Example 86, (2S,5S)-N-{5-[(3-Amino-4-fluoro-benzenesulfonyl)-isobutyl-amino]-6-hydroxy-hexyl}-2-(3,3-dimethyl-ureido)-3-naphthalen-2-yl-propionamide] | – | > 8.42 | –
25 | CC(C)CN([C@H](CO)CCCCNC(=O)[C@@H](N)C(c1ccccc1)c1ccccc1)S(=O)(=O)c1ccc(N)cc1 [Example 72, (2S,5S)-2-Amino-N-{5-[(4-amino-benzenesulfonyl)-isobutyl-amino]-6-hydroxy-hexyl}-3,3-diphenyl-propionamide] | – | 8.12 | –
